Assay results as given in patent US7740463B2, “Pressurised metered dose inhalers (MDI)” (Chiesi Farmaceutici S.p.A., priority 1998, dated 2010).
Several values for one entry are separate records, joined by “and”; a condition that tells them apart may be missing. Identical values can stand only once. Blank lines part the entries; values can stand above or below the compound they belong to.

Columns and labels:
[1] = Fine particle dose of dexbudesonide solution compositions, Andersen Cascade Impactor; format: physicochemical; details: for MMAD: low volatility compound 0.9% (w/w); for FPF: Fine particle dose/Delivered dose × 100; for Delivered dose: ex actuator; for FPD: particles lower than 4.7 μm, average of 10 shots; for Metered dose: sum of delivered dose and actuator residue
Description: The fine particle dose (FPD: weight of particles having an aerodynamic diameter lower than 4.7 μm) of dexbudesonide solution compositions in HFA 134a or HFA 227, prepared following the examples 4 and 5, was determined.
The experiments were performed using the Andersen Cascade Impactor and the data obtained are average values from 10 shots.
The FPD gives a direct measure of the mass of particles within the specified size range and is closely related to the efficacy of the product.

[2] = Chemical stability of dexbudesonide HFA 134a composition of Example 4 in epoxy-phenol lacquered aluminium cans (HPLC, epimeric distribution); format: physicochemical
Description: A composition containing 48 mg of dexbudesonide (200 μg/dose), 15% (w/w) ethanol, 1.3% (w/w) glycerol in HFA 134a to 12 ml can was distributed in epoxy-phenol lacquered aluminium cans and was stored at 40° C.

[3] = Chemical stability of dexbudesonide HFA 227 compositions of Example 5 in anodised aluminium cans (HPLC, epimeric distribution); format: physicochemical; details: for % Residual dexbudesonide / % residual dexbudesonide relative to t = 0: HFA 227, anodised aluminium cans
Description: Compositions containing 7.2, 12, 16.8 mg of dexbudesonide (corresponding to 30, 50 and 70 μg/dose respectively), ethanol, 0.9 (w/w) PEG 400 or isopropyl myristate (IPM) in HFA 227 to 12 ml can was distributed in aluminium anodised cans and was stored 70 days at 50° C.

[4] = Chemical stability of flunisolide HFA 134a composition of Example 7 in cans of different types (percent drug remaining, HPLC); format: physicochemical
Description: A composition containing 60 mg of flunisolide (250 μg/dose), […], 1% (w/w) glycerol in HFA 134a to 12 ml/can was distributed in anodised aluminium, glass cans or in cans having different internal coatings and were stored for 41 days at 50° C.

[5] = as above; format: physicochemical; remark: listed apart in the source
[6] = flunisolide/ethanol/HFA compositions of WO 95/17195, Table 8 of that application; cited from earlier work
[7] = Effect of different acids on chemical stability of the composition of Example 1 in epoxy-phenol resin (4) coated cans; format: physicochemical; details: epoxy-phenol (4) coated cans
Description: The effect of different acids on the chemical stability of the composition of Example 1 was studied.
The stability of the compositions was tested after 1, 2 and 5 months storage at 40° C. in epoxy-phenol resin (4) coated cans.

[8] = HFA 134a, 60 μg/shot, ethanol 8% (w/w), IPM 0.9% (w/w)
[9] = HFA 227, 63 μg/shot, ethanol 7% (w/w), IPM 0.9% (w/w)
[10] = HFA 227, 63 μg/shot, ethanol 7% (w/w), PEG 400 0.9% (w/w)
[11] = metered dose 30 μg, ethanol 5% (w/w), IPM 0.9% (w/w), t = 70 days at 50° C.
[12] = metered dose 30 μg, ethanol 5% (w/w), PEG 400 0.9% (w/w), t = 70 days at 50° C.
[13] = metered dose 50 μg, ethanol 8% (w/w), IPM 0.9% (w/w), t = 70 days at 50° C.
[14] = metered dose 50 μg, ethanol 8% (w/w), PEG 400 0.9% (w/w), t = 70 days at 50° C.
[15] = metered dose 70 μg, ethanol 7% (w/w), IPM 0.9% (w/w), t = 70 days at 50° C.
[16] = metered dose 70 μg, ethanol 7% (w/w), PEG 400 0.9% (w/w), t = 70 days at 50° C.
[17] = can: Anodised aluminum, t = 41 days at 50° C.
[18] = can: Epoxy phenol resin (2), t = 41 days at 50° C.
[19] = can: Epoxy phenol resin (3), t = 41 days at 50° C.
[20] = can: Anodised aluminum, t = 93 days (50° C. per title)
[21] = can: Epoxy phenol resin (1), t = 41 days at 50° C.
[22] = can: Epoxy phenol resin (1), t = 93 days (50° C. per title)
[23] = can: Epoxy phenol resin (2), t = 93 days (50° C. per title)
[24] = can: Epoxy phenol resin (3), t = 93 days (50° C. per title)

Structure (SMILES): CCC[C@@H]1O[C@@H]2C[C@H]3[C@@H]4CCC5=CC(=O)C=C[C@]5(C)[C@H]4[C@@H](O)C[C@]3(C)[C@]2(C(=O)CO)O1 [dexbudesonide]
MMAD ([1]; HFA 134a solution formulation, 14.4 mg/can (60 μg/shot), ethanol 8% (w/w)): 2.0 μm
FPF [1, 8]: 73.6% and 77.4%
Delivered dose [1, 8]: 54.2 µg and 50.9 µg
FPD [1, 8]: 39.9 µg and 39.4 µg
Metered dose [1, 8]: 57.9 µg and 53.2 µg
FPF [1, 9]: 75.5%
Delivered dose [1, 9]: 59.7 µg
FPD [1, 9]: 45.0 µg
Metered dose [1, 9]: 63.9 µg
FPF [1, 10]: 78.9%
Delivered dose [1, 10]: 61.5 µg
FPD [1, 10]: 48.5 µg
Metered dose [1, 10]: 65.5 µg
MMAD ([1]; HFA 227 solution formulation, 15.12 mg/can (63 μg/shot), ethanol 7% (w/w)): 2.0 μm
percent drug remaining ([2]; 200 μg/dose, 15% (w/w) ethanol, 1.3% (w/w) glycerol, HFA 134a, 8 months at 40° C., average of two tests): 95.4%
epimeric distribution ([2]; Example 4 composition, stored at 40° C.): no transfer from the 22R to the 22S epimer
epimeric distribution ([3]; Example 5 compositions, anodised aluminium cans, 70 days at 50° C.): no transfer from the 22R to the 22S epimer
% Residual dexbudesonide ([3]; metered dose 30 μg, ethanol 5% (w/w), IPM 0.9% (w/w), t = 0 days): 98.1%
% Residual dexbudesonide [3, 11]: 96.8%
% residual dexbudesonide relative to t = 0 [3, 11]: (98.7) %
% Residual dexbudesonide ([3]; metered dose 30 μg, ethanol 5% (w/w), PEG 400 0.9% (w/w), t = 0 days): 95.8%
% Residual dexbudesonide [3, 12]: 95.8%
% residual dexbudesonide relative to t = 0 [3, 12]: (100) %
% Residual dexbudesonide ([3]; metered dose 50 μg, ethanol 8% (w/w), IPM 0.9% (w/w), t = 0 days): 98.0%
% Residual dexbudesonide [3, 13]: 99.4%
% residual dexbudesonide relative to t = 0 [3, 13]: (101) %
% Residual dexbudesonide ([3]; metered dose 50 μg, ethanol 8% (w/w), PEG 400 0.9% (w/w), t = 0 days): 99.0%
% Residual dexbudesonide [3, 14]: 98.0%
% residual dexbudesonide relative to t = 0 [3, 14]: (98.9) %
% Residual dexbudesonide ([3]; metered dose 70 μg, ethanol 7% (w/w), IPM 0.9% (w/w), t = 0 days): 100.4%
% Residual dexbudesonide [3, 15]: 96.3%
% residual dexbudesonide relative to t = 0 [3, 15]: (96.0) %
% Residual dexbudesonide ([3]; metered dose 70 μg, ethanol 7% (w/w), PEG 400 0.9% (w/w), t = 0 days): 95.7%
% Residual dexbudesonide [3, 16]: 93.75%
% residual dexbudesonide relative to t = 0 [3, 16]: (98.0) %

% RESIDUAL FLUNISOLIDE ([4]; can: Anodised aluminum, t = 0): 101.6%
% RESIDUAL FLUNISOLIDE [4, 17]: 100.4%
% RESIDUAL FLUNISOLIDE RELATIVE TO t = 0 [4, 17]: (98.8) %
% RESIDUAL FLUNISOLIDE ([4]; can: Epoxy phenol resin (1), t = 0): 98.4%
% RESIDUAL FLUNISOLIDE ([4]; can: Epoxy phenol resin (2), t = 0): 101.9%
% RESIDUAL FLUNISOLIDE [4, 18]: 99.7%
% RESIDUAL FLUNISOLIDE RELATIVE TO t = 0 [4, 18]: (97.8) %
% RESIDUAL FLUNISOLIDE [4, 19]: 99.2%
% RESIDUAL FLUNISOLIDE [5, 20]: 100.7%
% RESIDUAL FLUNISOLIDE RELATIVE TO t = 0 [5, 20]: (99.1) %
% RESIDUAL FLUNISOLIDE [5, 21]: 99.2%
% RESIDUAL FLUNISOLIDE RELATIVE TO t = 0 [5, 21]: (101) %
% RESIDUAL FLUNISOLIDE [5, 22]: 101.4%
% RESIDUAL FLUNISOLIDE RELATIVE TO t = 0 [5, 22]: (103) %
% RESIDUAL FLUNISOLIDE [5, 23]: 101.9%
% RESIDUAL FLUNISOLIDE RELATIVE TO t = 0 [5, 23]: (100) %
% RESIDUAL FLUNISOLIDE ([5]; can: Epoxy phenol resin (3), t = 0): 101.7%
% RESIDUAL FLUNISOLIDE RELATIVE TO t = 0 [5, 19]: (97.5) %
% RESIDUAL FLUNISOLIDE [5, 24]: 101.2%
% RESIDUAL FLUNISOLIDE RELATIVE TO t = 0 [5, 24]: (99.6) %
% RESIDUAL FLUNISOLIDE ([5]; can: Glass type III, t = 93 days (50° C. per title)): 97.5%
Structure (SMILES): CC1(C)O[C@@H]2C[C@H]3[C@@H]4C[C@H](F)C5=CC(=O)C=C[C@]5(C)[C@H]4[C@@H](O)C[C@]3(C)[C@]2(C(=O)CO)O1 [flunisolide]
decomposition in containers [6]: decomposes only in plastic cans

Structure (SMILES): CC(C)[N+]1(C)[C@@H]2CC[C@H]1CC(OC(=O)C(CO)c1ccccc1)C2.[Br-] (some centres unmarked) [ipratropium bromide]
% RESIDUAL IPBr ([7]; acid: Ascorbic, t = 0): 119%
% RESIDUAL IPBr ([7]; acid: Ascorbic, t = 1 month at 40° C.): 113%
% RESIDUAL IPBr ([7]; acid: Ascorbic, t = 2 months at 40° C.): 112%
% RESIDUAL IPBr ([7]; acid: Ascorbic, t = 5 months at 40° C.): 110%
% RESIDUAL IPBr ([7]; acid: Citric (0.07% w/w), t = 1 month at 40° C.): 98%
% RESIDUAL IPBr ([7]; acid: Citric (0.3% w/w), t = 2 months at 40° C.): 100%
% RESIDUAL IPBr ([7]; acid: Citric (0.6% w/w), t = 0): 98%
% RESIDUAL IPBr ([7]; acid: Citric (0.6% w/w), t = 1 month at 40° C.): 98%
% RESIDUAL IPBr ([7]; acid: Hydrochloric (4 μl-1 N), t = 0): 101%
% RESIDUAL IPBr ([7]; acid: Hydrochloric (4 μl-1 N), t = 1 month at 40° C.): 100%
% RESIDUAL IPBr ([7]; acid: Hydrochloric (4 μl-1 N), t = 2 months at 40° C.): 104%
% RESIDUAL IPBr ([7]; acid: Hydrochloric (10 μl-1 N), t = 0): 101%
% RESIDUAL IPBr ([7]; acid: Hydrochloric (10 μl-1 N), t = 1 month at 40° C.): 98%
% RESIDUAL IPBr ([7]; acid: Hydrochloric (10 μl-1 N), t = 2 months at 40° C.): 98%
% RESIDUAL IPBr ([7]; acid: Hydrochloric (20 μl-1 N), t = 0): 100%
% RESIDUAL IPBr ([7]; acid: Hydrochloric (20 μl-1 N), t = 2 months at 40° C.): 98%
% RESIDUAL IPBr ([7]; acid: None, t = 2 months at 40° C.): 98%
